The values that follow come from patent US12480163B2, “Compositions and methods for identification assessment, prevention, and treatment of Ewing sarcoma using TP53 dependency biomarkers and modulators” (Dana-Farber Cancer Institute, Inc., priority 2018, dated 2025).

Entries after “also recorded” stand apart in the source; their conditions may differ.

The subject of one series is TP53 knockout cells. Kind of series: CellTiter-Glo cell viability assay, TP53 knockout cells. The series is classed as cell-based. How it is done:
Lentivirus was produced by transfecting HEK-293T cells with the pLentiV2 vector (Addgene plasmid 52961) and the packaging plasmids pCMV8.9 and pCMV-VSVG according to the FuGENER 6 (Roche) protocol. For lentiviral transduction, Ewing sarcoma cells were incubated with 2 ml of virus and 8 μg/ml of polybrene (Sigma-Aldrich). Cells were selected in puromycin (Sigma-Aldrich) 48 h after infection for single knockout experiments. For dual knockout experiments, PPM1D, USP7, and MDM4 sgRNA sequences were cloned into a LentiV2 vector with a blasticidin selection marker (Addgene plasmid 83480).
d. sgRNA Sequences sgRNAs were designed using the Broad Institute's sgRNA designer tool. The following sequences were used as control or to target the respective genes: control sgRNA, 5′-[…]-3′ (SEQ ID NO: 125); sgMDM2 2: 5′-[…]-3′ (SEQ ID NO: 126); sgMDM2 5: 5′-[…]-3′ (SEQ ID NO: 127); sgMDM4 4: 5′-[…]-3′ (SEQ ID NO: 128); sgMDM4 6: 5′-[…]-3′ (SEQ ID NO: 129); sgUSP7 1: 5′-[…]-3′ (SEQ ID NO: 130); sgUSP7 2: 5′-ACCATACCCAAATTATTC CG-3′ (SEQ ID NO: 131); sgPPMID 1: 5′-[…]-3′ (SEQ ID NO: 132); sgPPMID 2: 5′-[…]-3′ (SEQ ID NO: 133); sgTP53 1: 5′-[…]-3′ (SEQ ID NO: 134); sgTP53 2: 5′-[…]-3′ (SEQ ID NO: 135); sgTP53 4: 5′-[…]-3′ (SEQ ID NO: 136); and sgTP53 5: 5′-[…]-3′ (SEQ ID NO: 137). e. Protein Extraction and Immunoblotting
(§1) Cell viability was assessed using the CellTiter-Glo® Luminescent Cell Viability Assay (Promega). Viability assays were performed after Ewing sarcoma cell lines were infected with sgRNAs targeting TP53, MDM2, MDM4, PPM1D, or USP7 or treated with ATSP-7041, ATSP-7342, GSK2830371, P5091, XL-188, or vehicle control.

The subject of series [1] is TP53 wild-type Ewing sarcoma cell lines. Kind of series: Annexin V staining, flow cytometry (cell death). The following applies: TC32 and CHLA258; 2 d ATSP-7041 (2 μM, 4 μM) or P5091 (6.5 μM, 8 μM), 3 d GSK2830371 (15 μM). Format: cell-based. The protocol:
Cell death was measured using flow cytometric analysis of Annexin V staining according to the manufacturer's instructions (eBioscience). Data analysis was completed using Flowjo 7.6 software (Treestar).
On the technique in general: Flow cytometry measures light scatter and fluorescence of single cells or particles in a stream.

For series [2] the test system is unchanged. Kind of series: CellTiter-Glo cell viability assay, TP53 wild-type Ewing sarcoma cell lines. The series is classed as cell-based. The following applies: TP53 wild-type Ewing sarcoma cell lines, treated for 3 d, micromolar concentrations. The protocol: as §1
Series [3] concerns TP53 mutated Ewing sarcoma cell lines. Kind of series: CellTiter-Glo cell viability assay, TP53 mutated Ewing sarcoma cell lines. The series is classed as cell-based. The conditions noted are these: treated for 3 d. The protocol:
as §1

A further series deals with TC32 xenograft tumors. Kind of series: TC32 Ewing sarcoma xenograft anti-tumor efficacy study. The series is classed as in vivo, mice. The conditions noted are these: 30 mg/kg IV every other day for 20 d (10 doses) vs vehicle. How it is done: j. Ewing Sarcoma Xenograft Studies
For anti-tumor efficacy studies, tumor xenografts were established in 15 nude female mice by implanting three million TC32 cells into the right flank. Animals were randomized to either 20 d of treatment with 30 mg/kg q.o.d. IV ATSP-7041 (n=8) or vehicle (n=7) for a total of 10 doses. Treatment was started when tumors reached 100-200 mm3. Tumor volumes were measured with calipers twice a week. For PDX studies, tumor fragments were implanted into the right flank of nude female mice by minor surgery. After tumor engraftment, studies were performed as described for TC32 xenograft studies.
For in vivo studies, ATSP-7041 was prepared using the following protocol: mPEG-DSPE (Nanocs) was dissolved in chloroform and dried by a rotary evaporator. ATSP-7041 was dissolved in 1 M NaOH and diluted 100-fold in 10 mM histidine-buffered saline to a final concentration of 3 mg/ml. This mixture was added to the dried lipid film to a final mPEG-DSPE concentration of 50 mg/ml and final pH 7. The film was rehydrated by brief sonication and heating in a 50° C. water bath. The mixture was then subjected to five freeze-thaw cycles in liquid nitrogen and 40° C. water, respectively, and the solution passed 10 times through an Avanti Mini-Extruder Set (Avanti Polar Lipids) equipped with a 800-nm filter (Whatman).

For series [4], the system named is MDM2, p53, and p21 protein levels. Kind of series: Western immunoblotting of MDM2, p53, p21 in TP53 wild-type Ewing sarcoma cell lines. Format: cell-based. The protocol: Whole-cell lysates were extracted in cell lysis buffer (Cell Signaling) supplemented with EDTA-free protease inhibitors and PhosSTOP™ phosphatase inhibitors (Roche). Western immunoblotting was performed using standard techniques. Primary antibodies used included anti-MDM2 (ab178938; Abcam), anti-MDM2 (86934; Cell Signaling), anti-MDM4 (A300-287A; Bethyl Laboratories), anti-p53 (2527S; Cell Signaling), anti-p21 (2946S; Cell Signaling), anti-Vinculin (18058; Abcam), anti-Wip1 (A300-664A; Bethyl Laboratories), anti-pSer15-p53 (9284; Cell Signaling), anti-USP7 (A300-033A; Bethyl Laboratories), and anti-Tubulin (cp06; CalBiochem).
(In western blotting, separated proteins are transferred to a membrane and probed.)

As to `CC(=O)N[C@@H](CC(C)C)C(=O)N[C@H](C(=O)N[C@@H](Cc1ccccc1)C(=O)N[C@]1(C)CCCCCCC=CCCC[C@@](C)(C(=O)N[C@@H](CO)C(=O)N[C@@H](C)C(=O)N[C@@H](C)C(N)=O)NC(=O)[C@H](CC2CCC2)NC(=O)[C@H](CCC(N)=O)NC(=O)[C@H](C)NC(=O)[C@H](Cc2c[nH]c3ccccc23)NC(=O)[C@H](Cc2ccc(O)cc2)NC(=O)[C@H](CCC(=O)O)NC1=O)[C@@H](C)O` [ATSP-7041, Ac-Leu17-Thr-Phe-cyclo(R8-Glu-Tyr-Trp-Ala-Gln-Cba-S5)-Ser-Ala-Ala30-NH2], the “effect of TP53 knockout on the cytotoxic effect of the compound (viability)” value in the series on TP53 knockout cells is recorded as “fully rescues the cytotoxic effect”. The “cell death measured by Annexin V staining” value in series [1] is “triggers cell death; also recorded: induction of cell death”. Besides, in series [2], the “cell viability, normalized to vehicle control” value is listed as “selectively reduced the viability”. Moreover, in series [3], the “cell viability, normalized to vehicle control” value is on record as “resistant”. Also, the “tumor growth (normalized tumor volume)” value in the series on TC32 xenograft tumors is on record as “significantly suppressed tumor growth”. Further, in series [4] (TC32 cells, 2 d), the “p53 protein levels, combination of ATSP-7041 and doxorubicin” value is “greatly increased p53 protein levels”; the “p53 protein levels, combination of ATSP-7041 and etoposide” value was “greatly increased p53 protein levels”; the “p53 protein levels, combination of ATSP-7041 and vincristine” value was “greatly increased p53 protein levels”. Moreover, in series [4] (TP53 wild-type Ewing sarcoma cell lines, Western blot), the “MDM2, p53, and p21 protein levels” value is “increased protein levels of MDM2, p53, and p21; also recorded: Concentration-dependent increases”.
